Data on 1 compound can be found in patent US7763626B2, “Compositions and method for enhancing the therapeutic activity of opiods in treatment of pain” (Trustees of Dartmouth College, priority 2004, dated 2010).

Molecules are shown by their SMILES.

The subject of assay [1] is Male Sprague-Dawley rats. Nature of the assay: Hot water tail-flick test, morphine withdrawal-induced thermal hyperalgesia. The class given is in vivo, rat. As to the method: (§1) Male Sprague-Dawley rats (175-200 grams, Harlan, Indianapolis, Ind.) were divided into two groups (n=8 per group). Rats received subcutaneous injections of either saline or morphine (10 mg/kg; Sigma, St. Louis, Mo.) twice daily at 0800 to 0900 and 1600-1700 hour for 5 days in order to induce opioid tolerance. Chronic morphine withdrawal-induced hyperalgesia and allodynia were assessed in the animals 16 hours after the last injection of morphine. Following the recording of morphine withdrawal-induced hyperalgesia and allodynia, animals were treated with morphine (5 microgram) acutely via lumbar intrathecal injection to study the expression of morphine tolerance. Acute analgesic activity or intrathecal morphine in morphine-tolerant and chronic aline-treated rats were evaluated by mechanical (Analgesy-Meter) and thermal (tail-flick) test paradigms. Behaviors recorded prior to the acute administration of intrathecal morphine served as the basal latency measures.
(§2) With an understanding of the effects of morphine alone, separate groups of rats (n=8) received with saline or morphine (10 mg/kg subcutaneously, twice daily for 5 days) and also received once daily injections (at 1100 to 1200 hour) of propentofylline (1 and 10 micrograms) or saline via direct lumbar puncture during the induction of morphine tolerance. Again, chronic morphine withdrawal-induced hyperalgesia and allodynia were assessed in the animals 16 hours after the last subcutaneous morphine injection. Following the recording of morphine withdrawal-induced hyperalgesia and allodynia, animals were treated with morphine (5 micrograms) acutely via lumbar puncture to study the expression of morphine tolerance. As before, the acute analgesic activity of intrathecal morphine in morphine-tolerant and saline-injected rats was evaluated by mechanical (Analgesy-Meter) and thermal (tail-flick) test paradigms. Behavior recorded prior to the acute administration of intrathecal morphine served as the basal latency.
Thermal nociceptive thresholds were evaluated by the hot water tail-flick test that has been described previously (Bian, D. et al. 1999. Brain Res. 831:55-63). The test consisted of immersing the tail of the rats in water maintained at 49° C. and then recording the latency to a rapid flick. A 15 second cut-off time was used. Again, the total number of responses elicited during three successive trials separated by at least 10 minutes was recorded and then expressed as the % maximal possible effect. The tester was again blinded to the test groups.
On the technique in general: Thermal pain tests record how soon the animal reacts.

Assay [2] relates to Male Sprague-Dawley rats. Nature of the assay: Paw pressure test (Analgesy-Meter), morphine withdrawal-induced mechanical hyperalgesia. The class given is in vivo, rat. As to the method: as §1, §2
(§3) In blinded testing, rats were subjected to sequential series of 10 tactile stimulations to the dorsal surface of the ipsilateral hindpaw using […] von Frey filaments (Stoelting Co., WoodDale, Ill.) sequentially. The number of foot withdrawals to this normally non-noxious stimulus determined mechanical allodynia. Mechanical sensitivity was assessed by recording the total number of responses elicited during three successive trials separated by at least 10 minutes. The pressure required to elicit paw withdrawal, the paw pressure threshold was determined.

The subject of assay [3] is Male Sprague-Dawley rats. Nature of the assay: Mechanical allodynia (von Frey filaments), morphine withdrawal. The class given is in vivo, rat. Here is the method: as §1, §2
Mechanical sensitivity was measured as the frequency of foot withdrawals elicited by a defined mechanical stimulus. Each rat, under unrestrained conditions, was placed beneath an inverted, ventilated Plexiglas cage upon an elevated aluminum screen surface with 1 cm mesh openings. Animals had been previously acclimated to the environment and the experimenter.
as §3

The subject of assay [4] is Male Sprague-Dawley rats. The assay is described as follows: Morphine tolerance model, acute intrathecal morphine evaluated by thermal and mechanical test paradigms. The class given is in vivo, rat. Here is the method:
as §1
as §2, with “Following the recording of morphine withdrawal-induced hyperalgesia and allodynia, animals were treated with morphine (5 micrograms) acutely via lumbar puncture to study the expression of morphine tolerance.” left out
as §3
Thermal nociceptive thresholds were evaluated by the hot water tail-flick test that has been described previously (Bian, D. et al. 1999. Brain Res. 831:55-63). […] Again, the total number of responses elicited during three successive trials separated by at least 10 minutes was recorded and then expressed as the % maximal possible effect. […]

The next assay relates to IL-6 mRNA. The assay is described as follows: RNase protection assay, cytokine mRNA at L5 lumbar spinal cord. The class given is in vivo, rat. The settings on record: propentofylline 10 micrograms intrathecally for 5 days during induction of morphine tolerance.
The subject of assay [5] is Male Sprague-Dawley rats. Nature of the assay: L5 spinal nerve transection model, mechanical allodynia. The class given is in vivo, rat. As to the method:
(§4) Experiments were performed to determine how propentofylline-induced suppression of glial activation contribute to reduced behavioral hypersensitivity after nerve injury. In a preventative paradigm, 10 μg of propentofylline (Sigma) to male Sprague-Dawley rats in 40 μl of sterile saline, or saline vehicle alone was administered intrathecally (i.t.) by lumbar puncture at the L4/5 level under brief halothane anesthesia (n=6-8/group). Treatment began one hour prior to L5 spinal nerve transection and continued daily in the evening until day 4 or 12 post-transection. Rats received either an L5 spinal nerve transection or sham surgery on day 0. The development of mechanical allodynia was monitored as described above in the morning at approximately 15 hours post-propentofylline or saline injection. […]
Mechanical sensitivity was measured as the frequency of foot withdrawals elicited by a defined mechanical stimulus. […]
In blinded testing, rats were subjected to sequential series of 10 tactile stimulations to the dorsal surface of the ipsilateral hindpaw using […] von Frey filaments (Stoelting Co., WoodDale, Ill.) sequentially. The number of foot withdrawals to this normally non-noxious stimulus determined mechanical allodynia. Mechanical sensitivity was assessed by recording the total number of responses elicited during three successive trials separated by at least 10 minutes. […]

In the next assay the test system is GLAST. Nature of the assay: Immunohistochemical assessment of glutamate transporters in spinal cord. It counts as in vivo, rat. To be noted: day 12 after L5 spinal nerve transection; propentofylline 10 μg i.t. daily. As to the method: as §4
(§5) For assessment of GFAP, GLT-1 and GLAST immunoreactivity, a separate group of animals (n=4/treatment) were anesthetized and transcardially perfused with 0.1 M PBS (phosphate-buffered saline), pH 7.4, followed by 4% paraformaldehyde in PBS on day 12 post-L5 spinal nerve transection. […] The sections were examined with an Olympus fluorescence microscope, and images were captured with a Q-Fire cooled camera. […]

The next assay concerns GLT-1. The assay is described as above. It counts as in vivo, rat. To be noted: twelve days after L5 spinal nerve transection; propentofylline 10 μg i.t. daily. Here is the method: as §4, §5
For another assay, the system named is TNF-α mRNA. Nature of the assay: RNase protection assay, cytokine mRNA at L5 lumbar spinal cord. To be noted: propentofylline 10 micrograms intrathecally for 5 days during induction of morphine tolerance.
The mark [6] stands for this setting: 16 hours after last injection, morphine 10 mg/kg s.c. twice daily 5 days and/or propentofylline 10 micrograms intrathecally once daily 5 days.
Where [7] appears, read: 16 hours after last morphine injection (10 mg/kg s.c. twice daily 5 days), propentofylline 1 and 10 micrograms intrathecally for 5 days during induction of tolerance.
Where [8] appears, read: propentofylline 10 micrograms intrathecally for 5 days.

Procedure for IL-6 mRNA: (§6) After behavioral testing for reactions to the combined treatment, rats were sacrificed and decapitated. An 18-gauge needle was inserted into the caudal end of the vertebral column and the spinal cord was expelled with ice-cold phosphate-buffered saline. The spinal cord was frozen immediately on dry ice and stored at −80° C. until homogenization. The L5 lumbar spinal cord was isolated from the intact frozen cord at the time of mRNA and protein quantification. Total RNA was isolated from the L5 spinal cord by the TRIzol extraction method (Invitrogen Corporation, Carlsbad, Calif).
Assessment of the temporal cytokine mRNA expression in the L5 lumber spinal cord was performed using a Ribonuclease Protection Assay technique. A Multiprobe RPAse kit was used (Pharmingen, San Diego, Calif.). Total RNA (15 μg) was hybridized to ^32P-labeled antisense RNA probes transcribed using the rat cytokine-1 (rCK-1) multiprobe template set resulting in double-stranded target RNA. After Rnase digestion, protected RNA and probe were resolved on a denaturing polyacrylamide gel and visualized by overnight autoradiography. Quantitative image analysis was employed to compare mRNA levels based on band intensities for each cytokine. The intensity of each band was measured using image analysis software and assigned an arbitrary unit based on the measured intensity levels. The value for the normalized quantity for each band was obtained by dividing by the L32 house-keeping gene control. Individual mRNA concentration was calculated as the ratio of the expression compared with saline-treated animals in which normal values were weighted as 1.
Procedure for TNF-α mRNA: as §6
Assessment of the temporal cytokine mRNA expression in the L5 lumber spinal cord was performed using a Ribonuclease Protection Assay technique. A Multiprobe RPAse kit was used (Pharmingen, San Diego, Calif.). […] Quantitative image analysis was employed to compare mRNA levels based on band intensities for each cytokine. The intensity of each band was measured using image analysis software and assigned an arbitrary unit based on the measured intensity levels. The value for the normalized quantity for each band was obtained by dividing by the L32 house-keeping gene control. Individual mRNA concentration was calculated as the ratio of the expression compared with saline-treated animals in which normal values were weighted as 1.

In the assay with Male Sprague-Dawley rats [1] (setting [6]), `CCCn1cnc2c1c(=O)n(CCCCC(C)=O)c(=O)n2C` [propentofylline] returned a Tail-flick latency of 5.1 ± 0.3 s. For the same compound, the “morphine withdrawal-induced noxious thermal hyperalgesia” value with Male Sprague-Dawley rats [1] (setting [7]) is given as “significantly attenuated”. The Paw pressure latency with Male Sprague-Dawley rats [2] (setting [6]) is recorded as 119.4 ± 5.4 grams. For the same compound, the “morphine withdrawal-induced mechanical hyperalgesia” value in the assay on Male Sprague-Dawley rats [2] (setting [7]) was “significantly attenuated”. The “morphine withdrawal-induced mechanical allodynia” value with Male Sprague-Dawley rats [3] (setting [7]) is on record as “significantly attenuated”. The “Mechanical allodynia (2 grams)” value with Male Sprague-Dawley rats [3] (number of foot withdrawals, 2 grams von Frey filament, morphine 10 mg/kg s.c. twice daily 5 days and/or propentofylline 10 micrograms intrathecally) is 0. The “Mechanical allodynia (12 grams)” value in the assay on Male Sprague-Dawley rats [3] (number of foot withdrawals, 12 grams von Frey filament, morphine 10 mg/kg s.c. twice daily 5 days and/or propentofylline 10 micrograms intrathecally) is on record as 0. Besides, in the assay with Male Sprague-Dawley rats [4] (propentofylline 1 and 10 micrograms intrathecally for 5 days during induction of morphine tolerance, thermal and mechanical test paradigms), the “expression of spinal nociceptive tolerance to intrathecal morphine (5 micrograms)” value is given as “significantly attenuated”. In addition, in the assay on Male Sprague-Dawley rats [4] (setting [8]), the “anti-nociceptive activity of acute intrathecal morphine (5 micrograms) in chronic saline-treated rats” value is “no effect” and the “nociceptive threshold in saline-treated rats” value was “no effect”. Besides, in the assay with IL-6 mRNA, the “morphine-induced mRNA upregulation for IL-6” value is “significantly attenuated”. Besides, the “development of mechanical allodynia after L5 spinal nerve transection” value in the assay on Male Sprague-Dawley rats [5] (10 μg i.t. daily from one hour prior to transection, 12 g Von Frey filament, all time points, vs L5 saline rats) is recorded as “robustly inhibited”. Further, the “mechanical allodynia after L5 spinal nerve transection compared with normal group” value with Male Sprague-Dawley rats [5] (10 μg i.t. daily, day 5, 7, 9 and 12) was “no longer discernable from the normal group”. Moreover, the “GLAST immunoreactivity on the ipsilateral side” value in the assay on GLAST was “did not enhance”. In the assay with GLT-1, the “GLT-1 immunoreactivity, ipsilateral versus contralateral dorsal horns” value was “no qualitative difference”. The “morphine-induced mRNA upregulation for TNF-α” value with TNF-α mRNA was “significantly attenuated”.
